# Measurements reported in article PMC10058894, “Bioactive C21 Steroidal Glycosides from Euphorbia kansui Promoted HepG2 Cell Apoptosis via the Degradation of ATP1A1 and Inhibited Macrophage Polarization under Co-Cultivation” (Molecules, 2023).
# Columns and labels:
# Format in all cases: cell-based
# [1] = tested on: ATP1A1-related AKT and ERK signaling pathways; experiment: Western blot of AKT and ERK phosphorylation in HepG2 cells; settings: 5 at 25 μmol∙L−1, 0~60 min, digitonin 10 nmol∙L−1
# Experimental: An Na^+/K^+-ATPase inhibitor (digitonin), AKT inhibitor (MK 2206), and ERK inhibitor (FR 180204) were purchased from Biotech (Beijing, China). These agents were stored at −20 °C, and the cells were preincubated with the inhibitor for 4 h prior to treatment with the compounds. Digitonin, MK 2206, and FR 180204 were used at concentrations of 10, 40, and 200 nmol/L, respectively.
# (§1) Protein samples were prepared using a RIPA lysis buffer. The concentration of the protein was analyzed using a nucleic acid and protein microanalyzer (Molecular Devices, San Jose, CA, USA). SDS–PAGE was performed to separate the proteins, which were then electrotransferred onto a PVDF membrane. The membrane was incubated with antibodies at 4 °C overnight. Next, the membrane was washed and incubated with an HRP-conjugated secondary antibody (Beyotime, BeiJing, China). Finally, signals were detected by the ECL method (Beyotime, BeiJing, China) and analyzed using ImageJ software.
# RAW264.7 cells = experiment: Phagocytosis of macrophages by flow cytometry; settings: co-cultivation, vs control group
# Experimental: RAW264.7 cells (1.5 × 10^5 cells/well) and HepG2 cells (4 × 10^5 cells/well) were incubated in a Tissue Culture Plate Insert (LABSELECT, Hangzhou, China) at 37 °C and 95% humidity. Raw264.7 cells were incubated in 12-well plates, and HepG2 cells were incubated in Transwell chambers. After 24 h, the cells were treated with the compound for 48 h. Then, the chamber was discarded, and RAW264.7 cells were washed twice with PBS and a fresh medium. Next, 1.5 mL/well and 100 μL/well FluoSpheresTM carboxylate (Invitrogen, Carlsbad, CA, USA) were added to the medium for 2 h in the dark. Cells were washed twice with PBS, harvested, and then resuspended in 0.5 mL PBS. Finally, the cells were measured by a FACSCalibur (Becton Dickinson, Franklin Lakes, NJ, USA). Data were analyzed using FlowJo software.
# [2] = MTT assay, cell viability of RAW264.7 cells; settings: mouse, half inhibitory of RAW264.7 cells
# Experimental: HepG2 cells (1 × 10^4 cells/well) or RAW264.7 cells ([…]) were incubated in 96T wells for 24 h. Then, HepG2 cells were treated with compounds or Adriamycin for 48 h. In addition, RAW264.7 cells were treated with compounds for 24 h. Then, 0.5% MTT (Sigma, Saint Louis, MO, USA) was added to 20 μL/well for 3.5 h. The supernatant was discarded, and DMSO (150 μL/well) was added to dissolve the purple formazan. Cells were agitated for 15 min at room temperature, and the absorbance at 490 nm was recorded by SpetraMax M2 (Molecular Devices, San Jose, CA, USA).
# RAW264.7 cells (8 × 10^4 cells/well) were incubated in 96T wells with DMEM for 24 h and then treated with compounds and LPS (1 μg/mL) for 24 h; this included the control group and LPS group. Then, the cell supernatant was collected for nitric oxide production assay. Next, 100 uL/well PBS was added to 96T wells, then 0.5% MTT (Sigma, Saint Louis, MO, USA) was added to 20 μL/well for 3.5 h. DMSO (150 μL/well) was added to dissolve the purple formazan. Cells were agitated for 15 min at room temperature, and the absorbance at 490 nm was recorded by SpetraMax M2 (Molecular Devices, San Jose, CA, USA). The NO inhibition rate (%) = (ODLPS group − ODcompound group)/(ODLPS group-ODcontrol group) × 100%. The IC50 value refers to the inhibitory of nitric oxide production of LPS-stimulated RAW264.7 cells. Then, 70 uL of each cell supernatant sample was added into a new 96T plate, and Griess A and Griess B were added separately. Then, the absorbance value at 540 nm was detected and then brought into the standard curve to assay the concentration of NO. The cell survival rate (%) = (ODcompound group − ODblank group)/(ODcontrol group − ODblank group) × 100%. The half concentration of the cell death (CC50) value refers to the concentration of compound 5 when 50% of RAW264.7 cells die. The iNOS inhibitor ([…], L-NMMA) was selected as the positive control. The levels of cytokines (IL-1β, IFN-γ, IL-10, TNF-α, and IL-6) in the cell supernatant were determined using an ELISA kit (Novus Biologicals, Shanghai, China, Lot: 834472, 770118, 772051, 486956, 602865). When the process was conducted according to the manufacturer’s instructions, the absorbance was read at 450 nm/570 nm in a SpectraMax 340PC microplate spectrophotometer (Molecular Devices, San Jose, CA, USA).
# Huh-7 cells = experiment: MTT assay, cell viability of Huh-7 cells; settings: Homo sapiens, Huh-7, read-out: Huh-7 IC50
# Excerpt: 2. The anti-proliferation of compound 5 on Huh-7 cells
# We tested another hepatoma cell line (Huh-7) to validate effect of compound 5. L02 (normal hepatocytes), HepG2 and Hub-7 cells were used to discuss the effect of 5. […]
# of 5 on Huh-7 cell was (24.49±[…]) μM (Table S1). The morphology and apoptosis of the cells by reversed microscope and flow cytometry, respectively.
# Second, the expression and phosphorylation of ATP1A1 were detected by Western blot analysis in L02, HepG2 and Huh-7 cells. Compared with L02 group, the expression of ATP1A1 was higher in HepG2 and Huh-7 cells, but there was no significant difference in the phosphorylation of ATP1A1 (Figure […]
# At last, the effect of 5 on the expression and the phosphorylation of ATP1A1 in Huh-7 cells was […]
# the phosphorylation of ATP1A1. The result was consistent with that observed in HepG2 cells (Figure […]
# Table S1 Cell viability of Huh-7 cell treated by compound 5
# [3] = tested on: Bax, cleaved caspase 3, cleaved caspase 8, Bcl-2, LC3-B, p62, AKT/mTOR in HepG2 cells; experiment: Western blot of apoptosis- and autophagy-related proteins in HepG2 cells; settings: HepG2, 25 μmol∙L−1, 24 h
# Experimental: as §1
structure (smiles),measurement,setting,value
"C[C@H](O)[C@]1(O)CC[C@@]2(O)[C@]1(C)[C@H](OC(=O)/C=C/c1ccccc1)C[C@@H]1[C@@]3(C)CC[C@H](O[C@H]4C[C@H](O)[C@H](O)[C@@H](C)O4)CC3=CC[C@]12O [Compound 5, Cynsaccatol L]",phosphorylation of AKT and ERK and expression of ATP1A1,[1],all decreased
same,phagocytic ability of macrophages,RAW264.7 cells,significantly upregulated
same,CC50 at 24 h,[2],30.1 ± 3.14 µM
same,IC50,Huh-7 cells,24.5 ± 2.33 µM
same,"Bax, cleaved caspase 3 and cleaved caspase 8 protein expression",[3],increased
same,Bcl-2 protein expression,[3],decreased
same,expression of LC3-B and p62,[3],upregulating
same,phosphorylation of AKT and mTOR,[3],inhibited
